In US6660774B2, “Use of (+)-tramadol, O-demethyltramadol or (+)-O-demethyl-tramadol, O-desmethyl-N-mono-desmethyl-tramadol or (+)- O-desmethyl-N-mono-desmethyltramadol” (Gruenethal GmbH, priority 1999, dated 2003):

System: virgin, female Sprague-Dawley rats (bladder function)
Experiment: Cystometric testing on conscious, virgin rats
Type: in vivo, rat
[1] = 10.0 μg/kg i.t., Diff.: change relative to the initial value
[2] = 10.0 μg/kg i.t., h: after administration, at maximum action
[3] = 10.0 μg/kg i.t., v: before administration (initial value)
[4] = 10.0 mg/kg i.v., Diff.: change relative to the initial value
[5] = 10.0 mg/kg i.v., h: after administration, at maximum action
[6] = 10.0 mg/kg i.v., v: before administration (initial value)
[7] = 0.1 mg/kg i.v., Diff.: change relative to the initial value
[8] = 0.1 mg/kg i.v., h: after administration, at maximum action
[9] = 0.1 mg/kg i.v., v: before administration (initial value)
[10] = 0.3 mg/kg i.v., Diff.: change relative to the initial value
[11] = 0.3 mg/kg i.v., h: after administration, at maximum action
[12] = 0.3 mg/kg i.v., v: before administration (initial value)
[13] = 0.5 mg/kg i.v., Diff.: change relative to the initial value
[14] = 0.5 mg/kg i.v., h: after administration, at maximum action
[15] = 0.5 mg/kg i.v., v: before administration (initial value)
[16] = 5.0 mg/kg i.v., Diff.: change relative to the initial value
[17] = 5.0 mg/kg i.v., h: after administration, at maximum action
[18] = 5.0 mg/kg i.v., v: before administration (initial value)

## CNCC1CCCCC1(O)c1cccc(O)c1 (single isomer, unassigned; (+)) [(+)-M5, (+)-O-desmethyl-N-mono-desmethyltramadol]
[1]
  Basal pressure: Diff.: −9%
  Bladder capacity: Diff.: +61%
  Inter-contraction interval: Diff.: +38%
  Micturition pressure: Diff.: −46%
  Micturition volume: Diff.: +36%
  Residual volume: Diff.: +162%
  Threshold pressure: Diff.: +46%
[2]
  Basal pressure: h: 4.25 ± 0.33 cm H2O
  Bladder capacity: h: 1.06 ± 0.06 ml
  Inter-contraction interval: h: 5.22 ± 0.27 min
  Micturition pressure: h: 43 ± 6 cm H2O
  Micturition volume: h: 0.72 ± 0.04 ml
  Residual volume: h: 0.34 ± 0.04 ml
  Threshold pressure: h: 10.25 ± 1.01 cm H2O
[3]
  Basal pressure: v: 4.68 ± 0.74 cm H2O
  Bladder capacity: v: 0.66 ± 0.05 ml
  Inter-contraction interval: v: 3.78 ± 0.35 min
  Micturition pressure: v: 80 ± 9 cm H2O
  Micturition volume: v: 0.53 ± 0.06 ml
  Residual volume: v: 0.13 ± 0.01 ml
  Threshold pressure: v: 7.0 ± 0.93 cm H2O
10 mg/kg i.v.
  threshold pressure (in words): distinct rise
10.0 mg/kg i.v.
  interval between micturition (in words): not shortened
[4]
  Basal pressure: Diff.: +4%
  Bladder capacity: Diff.: −18%
  Inter-contraction interval: Diff.: −12%
  Micturition pressure: Diff.: −23%
  Micturition volume: Diff.: +9%
  Residual volume: Diff.: −88%
  Threshold pressure: Diff.: +69%
[5]
  Basal pressure: h: 3.95 ± 0.35 cm H2O
  Bladder capacity: h: 0.72 ± 0.08 ml
  Inter-contraction interval: h: 4.30 ± 0.47 min
  Micturition pressure: h: 41 ± 3 cm H2O
  Micturition volume: h: 0.86 ± 0.10 ml
  Residual volume: h: 0.01 ± 0.002 ml
  Threshold pressure: h: 12.08 ± 1.47 cm H2O
[6]
  Basal pressure: v: 3.78 ± 0.26 cm H2O
  Bladder capacity: v: 0.88 ± 0.09 ml
  Inter-contraction interval: v: 4.92 ± 0.53 min
  Micturition pressure: v: 53 ± 4 cm H2O
  Micturition volume: v: 0.79 ± 0.09 ml
  Residual volume: v: 0.08 ± 0.01 ml
  Threshold pressure: v: 7.13 ± 0.47 cm H2O
intrathecally
  bladder capacity (in words): distinct increases
  interval between micturition (in words): distinct increases
  threshold pressure (in words): increase

## CN(C)CC1CCCCC1(O)c1cccc(O)c1 (stereo not shown) [O-demethyltramadol]
Even at low concentrations
  effect on bladder function (in words): clear effect

## COc1cccc([C@@]2(O)CCCC[C@@H]2CN(C)C)c1 [(+)-Tramadol, (+)-tramadol]
[7]
  Basal pressure: Diff.: −4%
  Bladder capacity: Diff.: +18%
  Inter-contraction interval: Diff.: +33%
  Micturition pressure: Diff.: −20%
  Micturition volume: Diff.: +7%
  Residual volume: Diff.: 44%
  Threshold pressure: Diff.: +48%
[8]
  Basal pressure: h: 3.85 ± 0.46 cm H2O
  Bladder capacity: h: 1.07 ± 0.13 ml
  Inter-contraction interval: h: 7.13 ± 0.85 min
  Micturition pressure: h: 55 ± 8 cm H2O
  Micturition volume: h: 0.80 ± 0.09 ml
  Residual volume: h: 0.23 ± 0.07 ml
  Threshold pressure: h: 11.63 ± 1.05 cm H2O
[9]
  Basal pressure: v: 4.01 ± 0.57 cm H2O
  Bladder capacity: v: 0.91 ± 0.11 ml
  Inter-contraction interval: v: 5.35 ± 0.63 min
  Micturition pressure: v: 69 ± 11 cm H2O
  Micturition volume: v: 0.75 ± 0.12 ml
  Residual volume: v: 0.16 ± 0.01 ml
  Threshold pressure: v: 7.87 ± 1.51 cm H2O
[10]
  Basal pressure: Diff.: +10%
  Bladder capacity: Diff.: +39%
  Inter-contraction interval: Diff.: +19%
  Micturition pressure: Diff.: −15%
  Micturition volume: Diff.: +13%
  Residual volume: Diff.: +167%
  Threshold pressure: Diff.: +95%
[11]
  Basal pressure: h: 4.95 ± 0.19 cm H2O
  Bladder capacity: h: 1.38 ± 0.14 ml
  Inter-contraction interval: h: 7.21 ± 0.72 min
  Micturition pressure: h: 60 ± 5 cm H2O
  Micturition volume: h: 0.97 ± 0.13 ml
  Residual volume: h: 0.40 ± 0.04 ml
  Threshold pressure: h: 16.01 ± 1.63 cm H2O
[12]
  Basal pressure: v: 4.50 ± 0.29 cm H2O
  Bladder capacity: v: 0.99 ± 0.08 ml
  Inter-contraction interval: v: 6.06 ± 0.49 min
  Micturition pressure: v: 71 ± 4 cm H2O
  Micturition volume: v: 0.86 ± 0.07 ml
  Residual volume: v: 0.15 ± 0.01 ml
  Threshold pressure: v: 8.21 ± 0.42 cm H2O
[13]
  Basal pressure: Diff.: +13%
  Bladder capacity: Diff.: +18%
  Inter-contraction interval: Diff.: +21%
  Micturition pressure: Diff.: −22%
  Micturition volume: Diff.: +22%
  Residual volume: Diff.: −14%
  Threshold pressure: Diff.: +91%
[14]
  Basal pressure: h: 4.70 ± 1.14 cm H2O
  Bladder capacity: h: 1.43 ± 0.11 ml
  Micturition pressure: h: 57 ± 10 cm H2O
  Micturition volume: h: 1.31 ± 0.12 ml
  Residual volume: h: 0.12 ± 0.002 ml
  Threshold pressure: h: 15.0 ± 2.58 cm H2O
[15]
  Basal pressure: v: 4.16 ± 0.62 cm H2O
  Bladder capacity: v: 1.21 ± 0.06 ml
  Micturition pressure: v: 73 ± 12 cm H2O
  Micturition volume: v: 1.07 ± 0.06 ml
  Residual volume: v: 0.14 ± 0.03 ml
  Threshold pressure: v: 7.85 ± 1.04 cm H2O
5 mg/kg i.v.
  effect on bladder parameters (in words): has an effect
[16]
  Basal pressure: Diff.: +53%
  Bladder capacity: Diff.: −2%
  Inter-contraction interval: Diff.: +7%
  Micturition pressure: Diff.: −15%
  Micturition volume: Diff.: +46%
  Residual volume: Diff.: −95%
  Threshold pressure: Diff.: +140%
[17]
  Basal pressure: h: 6.46 ± 1.13 cm H2O
  Bladder capacity: h: 0.90 ± 0.09 ml
  Micturition pressure: h: 51 ± 7 cm H2O
  Micturition volume: h: 1.18 ± 0.12 ml
  Residual volume: h: 0.006 ± 0.003 ml
  Threshold pressure: h: 19.20 ± 3.02 cm H2O
[18]
  Basal pressure: v: 4.23 ± 0.35 cm H2O
  Bladder capacity: v: 0.92 ± 0.08 ml
  Micturition pressure: v: 60 ± 4 cm H2O
  Micturition volume: v: 0.81 ± 0.07 ml
  Residual volume: v: 0.11 ± 0.02 ml
  Threshold pressure: v: 8.0 ± 1.10 cm H2O
rat, in vivo
  bladder capacity (in words): distinct increase

## (+)-O-desmethyltramadol [(+)-M1]
[7]
  Basal pressure: Diff.: +7%
  Bladder capacity: Diff.: +31%
  Inter-contraction interval: Diff.: +31%
  Micturition pressure: Diff.: −22%
  Micturition volume: Diff.: +48%
  Residual volume: Diff.: −73%
  Threshold pressure: Diff.: +32%
[8]
  Basal pressure: h: 3.87 ± 0.43 cm H2O
  Bladder capacity: h: 0.98 ± 0.06 ml
  Inter-contraction interval: 5.51 ± 0.52 min
  Micturition pressure: h: 70 ± 11 cm H2O
  Micturition volume: h: 0.95 ± 0.09 ml
  Residual volume: h: 0.03 ± 0.02 ml
  Threshold pressure: h: 8.07 ± 0.97 cm H2O
[9]
  Basal pressure: v: 3.62 ± 0.24 cm H2O
  Bladder capacity: v: 0.75 ± 0.08 ml
  Inter-contraction interval: 4.20 ± 0.55 min
  Micturition pressure: v: 90 ± 12 cm H2O
  Micturition volume: v: 0.64 ± 0.10 ml
  Residual volume: v: 0.11 ± 0.02 ml
  Threshold pressure: v: 6.12 ± 0.51 cm H2O
[13]
  Basal pressure: Diff.: +25%
  Bladder capacity: Diff.: +44%
  Inter-contraction interval: Diff.: +46%
  Micturition pressure: Diff.: −30%
  Micturition volume: Diff.: +51%
  Residual volume: Diff.: −33%
  Threshold pressure: Diff.: +106%
[14]
  Basal pressure: h: 4.90 ± 0.55 cm H2O
  Bladder capacity: h: 1.35 ± 0.11 ml
  Inter-contraction interval: 7.63 ± 0.60 min
  Micturition pressure: h: 66 ± 10 cm H2O
  Micturition volume: h: 1.28 ± 0.09 ml
  Residual volume: h: 0.06 ± 0.02 ml
  Threshold pressure: h: 15.34 ± 1.16 cm H2O
[15]
  Basal pressure: v: 3.91 ± 0.31 cm H2O
  Bladder capacity: v: 0.94 ± 0.08 ml
  Inter-contraction interval: 5.23 ± 0.45 min
  Micturition pressure: v: 94 ± 10 cm H2O
  Micturition volume: v: 0.85 ± 0.08 ml
  Residual volume: v: 0.09 ± 0.02 ml
  Threshold pressure: v: 7.44 ± 1.10 cm H2O
0.1 and 0.5 mg/kg i.v.
  bladder capacity (in words): increased
  interval between micturition (in words): extended
0.1 and, in particular, 0.5 mg/kg i.v.
  threshold pressure (in words): distinct rise

## COc1cccc(C2(O)CCCCC2CN(C)C)c1 (single isomer, unassigned; (-)) [(−)-Tramadol, (−)-tramadol, reference compound]
[16]
  Basal pressure: Diff.: +2%
  Bladder capacity: Diff.: −8%
  Micturition pressure: Diff.: −15%
  Micturition volume: Diff.: −6%
  Residual volume: Diff.: −17%
  Threshold pressure: Diff.: −3%
[17]
  Basal pressure: h: 4.20 ± 0.30 cm H2O
  Bladder capacity: h: 1.10 ± 0.09 ml
  Micturition pressure: h: 59 ± 3 cm H2O
  Micturition volume: h: 1.01 ± 0.09 ml
  Residual volume: h: 0.10 ± 0.02 ml
  Threshold pressure: h: 7.10 ± 0.44 cm H2O
[18]
  Basal pressure: v: 4.12 ± 0.40 cm H2O
  Bladder capacity: v: 1.19 ± 0.13 ml
  Micturition pressure: v: 69 ± 4 cm H2O
  Micturition volume: v: 1.07 ± 0.13 ml
  Residual volume: v: 0.12 ± 0.01 ml
  Threshold pressure: v: 7.32 ± 2.21 cm H2O
